Assay results from PMC6843445, “Pharmacokinetic Properties of Fluorescently Labelled Hydroxypropyl-Beta-Cyclodextrin” (Biomolecules, 2019).

Test system: HUVECs
Test: FITC-HPBCD uptake, flow cytometry
Type: cell-based, Human
Experimental: Human umbilical vein endothelial cells (HUVECs) were removed from umbilical veins by exposure to dispase (0.2% in Hank’s balanced salt solution) and cultured in gelatin-coated flasks in medium 199 containing 15% foetal bovine serum (FBS), antibiotics, L-glutamine, sodium pyruvate and endothelial cell growth supplement from bovine pituitary. For the fluorescent microscopic experiments, cells were seeded onto gelatin-coated round glass coverslips and maintained in medium until the treatments.
In the flow cytometry experiments, HUVECs were treated with 50 µM FITC-HPBCD for 30 min at 37 °C and washed five times with ice-cold HBSS. Half of the samples were incubated for a further 60 min in HBSS at 37 °C. After the above-mentioned incubations every sample was trypsinized, the cell suspensions were washed twice with ice-cold HBSS and analyzed with a FACScan flow cytometer (BD Biosciences, San Jose, CA, USA). Propidium-iodide (PI) (2 µg/mL) was added to the samples to recognize dead cells and exclude them from the evaluation. FITC-HPBCD was excited by an argon laser at 488 nm and the emission was detected via 530/30 nm band pass filter. Data were analyzed by BDIS Cellquest software (Becton-Dickinson). The cellular fluorescence intensities of the FITC-HPBCD treated cells were compared to the fluorescence of the untreated control cells and expressed as relative cellular fluorescence intensities.

6-deoxy-6-[(5/6)-fluoresceinylthioureido]-(2-hydroxypropyl)-β-cyclodextrin [FITC-HPBCD]
cellular fluorescence after further incubation in HBSS (50 µM 30 min, then 60 min in HBSS): significantly decreased
cellular fluorescence vs untreated control (50 µM, 30 min incubation): significantly increased
